Experimental findings from PMC5587727 (Nucleic Acids Research, 2017) are described below.

For this experiment, the target named is hDcp2 (Homo sapiens, UniProt Q8IU60). The experiment is described as follows: In vitro RNA decapping assay with hDcp2. Format: biochemical. Conditions: RNA capped with the analogue; 15 min incubation; 100 ng capped RNA, 630 nM hDcp2.

Take `CO[C@H]1[C@@H](O)[C@H]([n+]2cn(C)c3c(=O)[nH]c(N)nc32)O[C@@H]1COP(=O)([O-])OP(=O)(O)OP(=O)(O)OC[C@H]1O[C@@H](n2cnc3c(=O)[nH]c(N)nc32)[C@H](O)[C@@H]1O` [m2^7,3′-OGpppG]: the “Decapping susceptibility (% of RNA decapping)” value is given as 74 ± 3%.
In the case of `Cn1c[n+]([C@@H]2O[C@H](COP(=O)(O)OP(=O)([O-])OP(=O)(O)OC[C@H]3O[C@@H](n4cnc5c(=O)[nH]c(N)nc54)[C@H](O)[C@@H]3O)[C@@H](O)[C@H]2O)c2nc(N)[nH]c(=O)c21` [m^7GpppG], the “Decapping susceptibility (% of RNA decapping)” value came out at 82 ± 2%.
